Measurements: patent publication US20070026026A1 (priority 2005, published 2007)

What was measured:
[1] = Example 2.2 A stability of losartan potassium in SPB with propylene glycol at 50° C. (HPLC); assay type: physicochemical; conditions: for degradation: after more than 1 month (816 hours) at 50° C.
Protocol: X represents the amount in mL of SPB added to provide 10 mL. […] Each formulation was evaluated by HPLC. The samples were then stored at 50° C. for about 1 month and analyzed periodically.

[2] = Example 1.1 solubility of losartan potassium with and without buffering agent (visual); assay type: physicochemical; conditions: for solubility: thermodynamic from solid, visual
Protocol: After 24 hours, the samples were examined. […] Formulations at these pHs of about 7 or greater should prevent precipitation of the drug.

[3] = Example 1.2 solubility of losartan potassium in sodium phosphate buffers by HPLC; assay type: physicochemical; conditions: for solubility at 0 h / solubility at 48 h / solubility at 480 h: sodium phosphate buffer, aqueous buffer, thermodynamic from solid, room temperature, HPLC
Excerpt: The materials used were sodium phosphate buffer (SPB) prepared in-house and losartan potassium. […] A sample of each solution was then taken and analyzed by HPLC. […] Each sample was stored at room temperature and data was collected as a function of time.

[4] = Example 2.2 C stability with PG, glycerin and xylitol at 50° C. (HPLC); assay type: physicochemical; conditions: after about 1 month at 50° C.
Protocol: Even with 30 percent glycerin present, in some embodiments it is desired to add additional sweetener as the composition may not be sweet enough for some patients. Accordingly, a stronger sweetener was considered for use in the composition. […] Thus, the stability of a composition of propylene glycol (PG), glycerin, and xylitol was studied and evaluated. […] PG (1.5 mL) was then added, this mixture was vortexed for 1 minute, 3 mL of glycerin was added, and this mixture was finally vortexed for 1 minute. […] Four different formulations were prepared and analyzed. Each sample was evaluated by HPLC. The samples were then stored at 50° C. for about 1 month and analyzed periodically.

[5] = Another study (not described): PG and PEG 400 effect on stability of losartan potassium; assay type: physicochemical
Excerpt: Therefore, in one embodiment PG is preferred over PEG 400.

[6] = Example 2.2 B stability with PG and glycerin or PG and PEG 400 at 50° C. (HPLC); assay type: physicochemical; conditions: for degradation: after 816 hours at 50° C.
Protocol: X represents the amount in mL of SPB added to provide 8.5 mL. […] Five different formulations were prepared and analyzed. Each sample was evaluated by HPLC. The samples were then stored at 50° C. for about 1 month and analyzed periodically.

[7] = cited from earlier work
[8] = Example 2.3 stability of saccharin-containing compositions at 50° C. (HPLC); assay type: physicochemical; conditions: for stability of losartan (percent active): saccharin sodium, 50° C.
Protocol: Two different concentrations of glycerin (30 percent and 40 percent by volume) and 2 different pHs of the phosphate buffer (7.4 and 8.2) were studied. Four different compositions that contained saccharin were prepared and analyzed. The materials used were losartan potassium; saccharin sodium; propylene glycol (PG); glycerin; and potassium phosphate buffer (PPB) prepared in-house. […] Three mL of PG were then added to the vortexed mixture, (17-X) mL of glycerin added, and this mixture vortexed for 2 minutes. X represents the amount in mL of PPB added to provide 17 mL. Each sample was then stored at 50° C. and evaluated by HPLC periodically.

[9] = Example 2.1 stability of losartan potassium in phosphate buffers at 50° C. (HPLC); assay type: physicochemical; conditions: for stability (percent active on a weight basis): 50° C.; for degradation of the original losartan: pH 7.4
Protocol: The three variables were the pH of the buffer, cation of the buffer, and concentration of the phosphate salt in the buffer. The pHs studied were 7.4 and 8.2; the cations studied were potassium and sodium; and the concentrations studied were 10 mM and 100 mM.
The materials used were sodium phosphate buffer (SPB) and potassium phosphate buffer (PPB) prepared in-house and losartan potassium. […] A sample of each solution was taken and analyzed by HPLC. The different solutions were then stored at 50° C. […] The stability (measured as percent active on a weight

CCCCc1nc(Cl)c(CO)n1Cc1ccc(-c2ccccc2-c2nnn[nH]2)cc1.[K] [losartan potassium, 2-butyl-4-chloro-1-[p-(o-1H-tetrazol-5-ylphenyl)benzyl]imidazole-5-methanol monopotassium salt]
degradation ([1]; 10 percent PG in SPB pH 7.2): less than 0.4% | degradation ([1]; 15 percent PG in SPB pH 7.2): less than 0.4% | stability in words ([1]; 30 percent PG in SPB pH 7.2, 50° C.): unexpectedly good | crystals after storage of the solubility sample ([2]; SPB pH 6.2, stored at 50° C. overnight, examined after 24 hours): crystals were observed | solubility ([2]; organic solvent or mixture, Ethanol): 130000 µg/mL | solubility ([2]; sodium phosphate buffer, aqueous buffer, SPB 10 mM, pH 1.9): 48 µg/mL | solubility ([2]; sodium phosphate buffer, aqueous buffer, SPB 10 mM, pH 6.2): > 241000 µg/mL | solubility ([2]; sodium phosphate buffer, aqueous buffer, SPB 10 mM, pH 7.2): 300000 µg/mL | solubility ([2]; sodium phosphate buffer, aqueous buffer, SPB 10 mM, pH 8.2): > 253000 µg/mL | solubility ([2]; Water, pH 5.5): > 243000 µg/mL | solubility ([2]; water with HCl, aqueous buffer, Water + HCl, pH 2.1): 280 µg/mL | solubility ([2]; water with NaOH, aqueous buffer, Water + NaOH, pH 11.8): > 239000 µg/mL | precipitation on storage ([3]; SPB pH of 6.2): some re-precipitation was observed | solubility in words ([3]; pH under 6.2): practically insoluble | precipitation on storage ([3]; pHs of 7.4 and higher): no precipitation was observed | solubility at 0 h ([3]; SPB pH = 1.7): 1070 µg/mL | solubility at 48 h ([3]; SPB pH = 1.7): 152 µg/mL | solubility at 480 h ([3]; SPB pH = 1.7): 30 µg/mL | solubility at 0 h ([3]; SPB pH = 6.2): 1620 µg/mL | solubility at 48 h ([3]; SPB pH = 6.2): 1650 µg/mL | solubility at 480 h ([3]; SPB pH = 6.2): 60 µg/mL | solubility at 0 h ([3]; SPB pH = 7.4): > 250000 µg/mL | solubility at 48 h ([3]; SPB pH = 7.4): > 250000 µg/mL | solubility at 480 h ([3]; SPB pH = 7.4): > 250000 µg/mL | solubility at 0 h ([3]; SPB pH = 8.2): > 250000 µg/mL | solubility at 48 h ([3]; SPB pH = 8.2): > 250000 µg/mL | solubility at 480 h ([3]; SPB pH = 8.2): > 250000 µg/mL | degradation ([4]; 5 mg/mL, 1 percent xylitol): about 0.45% | degradation ([4]; 5 mg/mL, 2 percent xylitol): about 0.5% | degradation ([4]; 25 mg/mL, 1 percent xylitol): approximately 0.7% | degradation ([4]; 25 mg/mL, 2 percent xylitol): approximately 0.7% | effect of PEG 400 on stability ([5]; in SPB): improve the stability | effect of PG on stability ([5]; in SPB): improve the stability | effect of PEG 400 on stability ([5]; in water): did not improve the stability | degradation ([6]; SPB with 15 percent PG and 10 percent PEG 400): 0.33% | degradation ([6]; SPB with 15 percent PG and up to 30 percent glycerin): less than 0.5% | effect on stability in words ([6]; increasing PEG 400 to 30 percent in the composition, 50° C.): decreased the stability | solubility in alcohols [7]: soluble | solubility in chloroform [7]: practically insoluble | solubility in common organic solvents, such as acetonitrile and methylethyl ketone [7]: slightly soluble | solubility in water [7]: freely soluble | stability of losartan (percent active) ([8]; 30% glycerin, PPB pH = 7.4, PG, 0 hour): 99.88% | stability of losartan (percent active) ([8]; 30% glycerin, PPB pH = 7.4, PG, 72 hours): 99.91% | stability of losartan (percent active) ([8]; 30% glycerin, PPB pH = 7.4, PG, 288 hours): 99.88% | stability of losartan (percent active) ([8]; 30% glycerin, PPB pH = 7.4, PG, 1152 hours): 99.65% | stability of losartan (percent active) ([8]; 30% glycerin, PPB pH = 8.2, PG, 0 hour): 99.88% | stability of losartan (percent active) ([8]; 30% glycerin, PPB pH = 8.2, PG, 72 hours): 99.88% | stability of losartan (percent active) ([8]; 30% glycerin, PPB pH = 8.2, PG, 288 hours): 99.89% | stability of losartan (percent active) ([8]; 30% glycerin, PPB pH = 8.2, PG, 1152 hours): 99.86% | stability of losartan (percent active) ([8]; 40% glycerin, PPB pH = 7.4, PG, 0 hour): 99.88% | stability of losartan (percent active) ([8]; 40% glycerin, PPB pH = 7.4, PG, 72 hours): 99.88% | stability of losartan (percent active) ([8]; 40% glycerin, PPB pH = 7.4, PG, 288 hours): 99.88% | stability of losartan (percent active) ([8]; 40% glycerin, PPB pH = 7.4, PG, 1152 hours): 99.73% | stability of losartan (percent active) ([8]; 40% glycerin, PPB pH = 8.2, PG, 0 hour): 99.88% | stability of losartan (percent active) ([8]; 40% glycerin, PPB pH = 8.2, PG, 72 hours): 99.88% | stability of losartan (percent active) ([8]; 40% glycerin, PPB pH = 8.2, PG, 288 hours): 99.92% | stability of losartan (percent active) ([8]; 40% glycerin, PPB pH = 8.2, PG, 1152 hours): 99.82% | degradation in words ([8]; saccharin-containing compositions, after 12 days (288 hours) and even at 1152 hours at 50° C.): Minimal degradation | stability (percent active on a weight basis) ([9]; PPB, 10 mM, pH = 7.4, 0 hours): 99.93% | stability (percent active on a weight basis) ([9]; PPB, 10 mM, pH = 7.4, 24 hours): 99.90% | stability (percent active on a weight basis) ([9]; PPB, 10 mM, pH = 7.4, 264 hours): 99.14% | stability (percent active on a weight basis) ([9]; PPB, 10 mM, pH = 7.4, 672 hours): 98.74% | stability (percent active on a weight basis) ([9]; PPB, 100 mM, pH = 7.4, 0 hours): 99.93% | stability (percent active on a weight basis) ([9]; PPB, 100 mM, pH = 7.4, 24 hours): 99.90% | stability (percent active on a weight basis) ([9]; PPB, 100 mM, pH = 7.4, 264 hours): 99.32% | stability (percent active on a weight basis) ([9]; PPB, 100 mM, pH = 7.4, 672 hours): 98.84% | degradation of the original losartan ([9]; SPB 10 mM, after about 1 month at 50° C.): around 1.5% | degradation of the original losartan ([9]; SPB 100 mM, after about 1 month at 50° C.): about 1% | stability (percent active on a weight basis) ([9]; SPB, 10 mM, pH = 7.4, 0 hours): 99.96% | stability (percent active on a weight basis) ([9]; SPB, 10 mM, pH = 7.4, 24 hours): 99.90% | stability (percent active on a weight basis) ([9]; SPB, 10 mM, pH = 7.4, 264 hours): 99.12% | stability (percent active on a weight basis) ([9]; SPB, 10 mM, pH = 7.4, 672 hours): 98.49% | stability (percent active on a weight basis) ([9]; SPB, 10 mM, pH = 8.2, 0 hours): 99.93% | stability (percent active on a weight basis) ([9]; SPB, 10 mM, pH = 8.2, 24 hours): 99.91% | stability (percent active on a weight basis) ([9]; SPB, 10 mM, pH = 8.2, 264 hours): 99.68% | stability (percent active on a weight basis) ([9]; SPB, 10 mM, pH = 8.2, 672 hours): 99.59% | stability (percent active on a weight basis) ([9]; SPB, 100 mM, pH = 7.4, 0 hours): 99.93% | stability (percent active on a weight basis) ([9]; SPB, 100 mM, pH = 7.4, 24 hours): 99.90% | stability (percent active on a weight basis) ([9]; SPB, 100 mM, pH = 7.4, 264 hours): 99.34% | stability (percent active on a weight basis) ([9]; SPB, 100 mM, pH = 7.4, 672 hours): 98.90% | stability (percent active on a weight basis) ([9]; SPB, 100 mM, pH = 8.2, 0 hours): 99.93% | stability (percent active on a weight basis) ([9]; SPB, 100 mM, pH = 8.2, 24 hours): 99.91% | stability (percent active on a weight basis) ([9]; SPB, 100 mM, pH = 8.2, 264 hours): 99.77% | stability (percent active on a weight basis) ([9]; SPB, 100 mM, pH = 8.2, 672 hours): 99.66% | degradation ([9]; SPB, pH of 8.2, after about 1 month at 50° C.): about 0.4%
